Results on 17 compounds are retold here after article PMC6332076, “Plasma Pharmacokinetics of Polyphenols in a Traditional Japanese Medicine, Jumihaidokuto, Which Suppresses Propionibacterium acnes-Induced Dermatitis in Rats” (Molecules, 2015).

Where two headings read alike, the source gives them in different places.

A short description of series [1]: Antioxidant assay, nitric oxide generated from NOR3 (Griess reagent). In kind it is biochemical. Particulars: for activity against nitric oxide (in words): nitric oxide reaction. How it is done:
To quantify nitric oxide, a test sample was incubated at 37 °C for 150 min in PBS supplemented with 30 μmol/L of (±)-(E)-4-ethyl-2-[(E)-hydroxyimino]-5-nitro-3-hexenamide (NOR3). Nitric oxide generated naturally from NOR3, was measured using the Griess reagent (1% sulfanilamide, 0.1% N-(1-naphthyl) ethylenediamine dihydrochlride in 5% H3PO4). Briefly, 100 μL of the reacted solution was incubated for 5 min with 100 μL Griess reagent. Optical densities at 540 nm were then measured.

Series [2] in a line: Antioxidant assay, hydrogen peroxide-dependent oxidation (OxiSelect In vitro ROS/RNS Assay, DCFH-DiOxyQ). Particulars: for activity against ROS (in words): hydrogen peroxide-dependent oxidation; for Antioxidant activity, IC50, Hydrogen Peroxide: tested at 0.1-30 μmol/L, N = 3, n.d. = not detectable at the maximal concentration (30 μmol/L); for anti-ROS activity of glucuronide compared with its aglycone: serially-diluted concentrations. It counts as biochemical. How it is done: Figure 4 Concentration dependency of flavonoid glucuronides and comparison with aglycones. Glucuronides and aglycones of flavonoid were assayed at serially-diluted concentrations to assess on hydrogen peroxide-dependent oxidation. Test samples were incubated with hydrogen peroxide for 5 min, followed by mixing with a probe of oxidant activity. After 15 min incubation, the hydrogen peroxide-dependent fluorescent intensity was measured. Data are shown as mean ± S.E. of triplicates. To assess ROS, OxiSelect In vitro ROS/RNS Assay kits ([…], Minneapolis, MN, USA) were used according to manufacturer’s instructions. Briefly, a test sample was incubated with 2.5 μmol/L of hydrogen peroxide for 5 min, and dichlorodihydrofluorescin DiOxyQ (DCFH-DiOxyQ) was added as a probe of oxidant activity. After 15 min incubation, the hydrogen peroxide-dependent fluorescent intensity was measured using a fluorescent plate reader (Infinite M200; Tecan, Wako Pure Chemical Industries). Percentage of inhibition of ROS was calculated using the following equation: [1 − (sample RFU^a − base RFU^b)/(control RFU^c − base RFU^b)] × 100 (1) where RFU is a relative fluorescent unit of reaction solution, a is RFU of DCFH-DiOxyQ with hydrogen peroxide and sample, b is RFU of DCFH-DiOxyQ alone, and c is RFU of DCFH-DiOxyQ with hydrogen peroxide.

A short description of another series: in vivo. On the set-up: species or system rat. Particulars: for AUC(0-t) / Cmax / half-life / tmax: oral JHT 2 g/kg, non-compartmental; for concentration at 1 h / concentration at 24 h: rat, po, 2 g/kg; for concentration at 1 h: plasma; for concentration at 24 h: in vivo, 24 h after oral JHT 2 g/kg. How it is done:
The higher dose than that in the pharmacological test was used to detect more constituents. […] In some experiments to deconjugate glucuronidated polyphenols, the samples were incubated with 75 mmol/L phosphate buffer containing 200 units/mL β-glucuronidase from Escherichia coli (Sigma-Aldrich) for 2 h at 37 °C.
For quantification of liquiritin, liquiritigenin, isoliquiritin, isoliquiritigeniin, hesperidin, hesperetin, castalagin, and all flavonoid glucuronides, 25–60 µL of standard solution and 25 µL of internal standard solution were added to 200–300 µL of plasma samples, followed by mixing well. Methanol (750–800 µL) was added to the solutions, followed by mixing and centrifugation (7000 g, 5 min). The supernatants were collected and dried at 40 °C under a stream of nitrogen gas. Then, the dried residue was dissolved in 50–100 μL of the HPLC mobile phase of each analytical method, and a 1–20 μL portion was injected into the LC-MS/MS systems. For quantification of genistein, luteolin, quercetin, (+)-catechin, (−)-epicatechin gallate, (±)-gallocatechin, Gallic acid, 4-O-methylgallic acid, hamamelitannin, 1,2,3,6-tetra-O-galloyl glucose, 1,2,3,4,6-penta-O-galloyl glucose, eugeniin, and 1-desgalloyl eugeniin, 200 μL of plasma samples were used. The amounts were measured using the same procedure, as described previously, except ethyl acetate (500 μL) and 2% acetic acid (100 μL), instead of methanol, were used concurrently as an extraction solution.
Plasma pharmacokinetic data were analyzed by non-compartmental modeling using Phoenix WinNonlin (version 6.3, Certara L.P., St. Louis, MO, USA) to determine various pharmacokinetic constants including the maximum concentration (Cmax), time to maximum concentration (tmax), apparent elimination half-life (t1/2), and area under the plasma concentration-time curve from time zero to the last observation (AUC0–last). The t1/2 was […] loge2/ke, where ke is the terminal elimination (at least three data points on the descending linear limb) rate constant.

The mark [3] stands for this setting: rat plasma, 1 h after oral JHT 2 g/kg, read-out: plasma concentration before β-glucuronidase treatment.
[4] abbreviates: rat plasma after oral JHT 2 g/kg.
The mark [5] stands for this setting: rat plasma, 6 h after oral JHT 2 g/kg.

With `COc1cc(C(=O)O)cc(O)c1O` [3-O-methylgallic acid], the “activity against nitric oxide (in words)” value in series [1] was “not nitric oxide”. Besides, in series [2], the “activity against ROS (in words)” value is “strong activity”.

As to `COc1c(O)cc(C(=O)O)cc1O` [4-O-Methylgallic acid, 4-O-methylgallic acid], in series [1] (tested at 0.1-30 μmol/L, N = 3, n.d. = not detectable at the maximal concentration (30 μmol/L)), the “Antioxidant activity, IC50, Nitric Oxide” value came to 3.59 µg/mL. In addition, in series [2], the “Antioxidant activity, IC50, Hydrogen Peroxide” value is given as “not detectable even at the highest concentration”. In addition, the “plasma concentration after β-glucuronidase treatment” value in “in vivo” (rat plasma, 1 h after oral JHT 2 g/kg) is listed as “unchanged”. In the series “in vivo” (rat plasma), the AUC(0-t) is 32.7 ng·h/mL, the Cmax was 6.65 ng/mL, the half-life was 1.62 h and the tmax was determined as 2.00 H. The concentration at 1 h in the series “in vivo” (setting [3]) stood at 5.57 ng/mL.

Turning to `COc1c2c(cc3oc(CO)cc(=O)c13)O[C@H](C(C)(C)O)C2` [Cimifugin, cimifugin, reference compound], the “activity against nitric oxide (in words)” value in series [1] is “no activity”. The “activity against ROS (in words)” value in series [2] is given as “no activity”. Further, in the series “in vivo” (setting [4]), the “appearance / detection in plasma” value is recorded as “identified by major peaks”.

Regarding `O=C(O)c1cc(O)c(O)c(O)c1` [Gallic acid], the “plasma concentration (not detected)” value in “in vivo” (setting [4]) was less than 10 ng/mL.

Regarding `O=C(O)C1OC(Oc2cc(O)c3c(=O)c(-c4ccc(O)cc4)coc3c2)C(O)C(O)C1O` (stereo not shown) [Genistein 7-O-glucuronide, genistein 7-O-glucuronide], the “inhibition (anti-ROS activity)” value in series [2] (at 134 ng/mL, statistically significant, Figure 4) worked out at 25%. In addition, the “anti-ROS activity of glucuronide compared with its aglycone” value in series [2] (Figure 4) is recorded as “completely identical to that of their aglycones”. Moreover, the “Antioxidant activity, IC50, Hydrogen Peroxide” value in series [2] turned out to be 0.638 µg/mL. Besides, in the series “in vivo” (rat plasma at 10 and 24 h after oral JHT), the plasma concentration entry is recorded as “approximately 50 ng/mL”. In addition, in “in vivo” (rat plasma), the AUC(0-t) was 812 ng·h/mL, the Cmax stood at 53.4 ng/mL and the tmax was 24.0 H. In addition, the tmax in the series “in vivo” (rat plasma, listed as GEN-7G) is 24 H.

For `CC1(C)[C@@H](O)CC[C@]2(C)[C@H]3C(=O)C=C4[C@@H]5C[C@@](C)(C(=O)O)CC[C@]5(C)CC[C@@]4(C)[C@]3(C)CC[C@@H]12` [Glycyrrhetic acid, glycyrrhetic acid, reference compound], in series [1], the “activity against nitric oxide (in words)” value is “no activity”. In series [2], the “activity against ROS (in words)” value is “no activity”. The “appearance / detection in plasma” value in the series “in vivo” (setting [4]) was “identified by major peaks”.

Regarding `COc1ccc(C2CC(=O)c3c(O)cc(OC4OC(C(=O)O)C(O)C(O)C4O)cc3O2)cc1O` (stereo not shown) [Hesperetin 7-O-glucuronide, hesperetin 7-O-glucuronide], the “anti-ROS activity of glucuronide compared with its aglycone” value in series [2] (Figure 4) is on record as “partially decreased”. The “Antioxidant activity, IC50, Hydrogen Peroxide” value in series [2] was found to be 4.27 µg/mL. In the series “in vivo” (rat plasma), this compound had an AUC(0-t) of 190 ng·h/mL, a Cmax of 34.2 ng/mL, a half-life of 2.99 h and a tmax of 4.00 H.

Consider `O=C(C=Cc1ccc(O)cc1)c1ccc(O)cc1OC1OC(C(=O)O)C(O)C(O)C1O` (stereo not shown) [Isoliquiritigenin 2′-O-glucuronide, isoliquiritigenin 2′-O-glucuronide], for which the “Antioxidant activity, IC50, Hydrogen Peroxide” value in series [2] stood at 0.704 µg/mL. In the series “in vivo” (rat plasma), this compound returned an area under the curve AUC(0-t) of 11.6 ng·h/mL, a Cmax of 3.19 ng/mL and a tmax of 0.250 H.

Turning to `O=C(C=Cc1ccc(OC2OC(C(=O)O)C(O)C(O)C2O)cc1)c1ccc(O)cc1O` (stereo not shown) [Isoliquiritigenin 4-O-glucuronide, isoliquiritigenin 4-O-glucuronide], in “in vivo” (rat plasma), the AUC(0-t) came to 1.84 ng·h/mL, the highest concentration (Cmax) worked out at 0.388 ng/mL, the half-life is 5.68 h and the tmax is 0.250 H.

As for `O=C(C=Cc1ccc(O)cc1)c1ccc(OC2OC(C(=O)O)C(O)C(O)C2O)cc1O` (stereo not shown) [Isoliquiritigenin 4′-O-glucuronide, isoliquiritigenin 4′-O-glucuronide], the “anti-ROS activity of glucuronide compared with its aglycone” value in series [2] (Figure 4) is “completely identical to that of their aglycones”. Moreover, in series [2], the “Antioxidant activity, IC50, Hydrogen Peroxide” value amounted to 0.691 µg/mL. In “in vivo” (rat plasma), this compound had an area under the curve AUC(0-t) of 80.8 ng·h/mL, a Cmax of 15.8 ng/mL, a half-life of 2.25 h and a tmax of 0.250 H.

As for `O=C(O)[C@H]1O[C@@H](Oc2cc(O)c3c(=O)cc(-c4ccc(O)c(O)c4)oc3c2)[C@H](O)[C@@H](O)[C@@H]1O` [LTN-7G, luteolin 7-O-glucuronide], in “in vivo” (setting [4]), the “appearance / detection in plasma” value is given as “did not appear in the plasma”.

Take `O=C1CC(c2ccc(OC3OC(C(=O)O)C(O)C(O)C3O)cc2)Oc2cc(O)ccc21` (stereo not shown) [Liquiritigenin 4′-O-glucuronide, liquiritigenin 4′-O-glucuronide]: in series [2], the “activity against ROS (in words)” value was “no activity” and the “Antioxidant activity, IC50, Hydrogen Peroxide” value was “not detectable even at the highest concentration”. Besides, the “anti-ROS activity of glucuronide compared with its aglycone” value in series [2] (Figure 4) is given as “no activity”. In “in vivo” (rat plasma), this compound gave an area under the curve AUC(0-t) of 522 ng·h/mL, a Cmax of 84.1 ng/mL, a half-life of 2.27 h and a tmax of 2.00 H.

Regarding `O=C1CC(c2ccc(O)cc2)Oc2cc(OC3OC(C(=O)O)C(O)C(O)C3O)ccc21` (stereo not shown) [Liquiritigenin 7-O-glucuronide, liquiritigenin 7-O-glucuronide], the “anti-ROS activity of glucuronide compared with its aglycone” value in series [2] (Figure 4) is recorded as “completely identical to that of their aglycones”. In series [2], the “Antioxidant activity, IC50, Hydrogen Peroxide” value turned out to be 0.765 µg/mL. In the series “in vivo” (rat plasma), this compound showed an exposure AUC(0-t) of 223 ng·h/mL, a Cmax of 35.6 ng/mL, a half-life of 2.72 h and a tmax of 2.00 H.

As to `O=C1C[C@@H](c2ccc(O[C@@H]3O[C@H](CO)[C@@H](O)[C@H](O)[C@H]3O)cc2)Oc2cc(O)ccc21` [Liquiritin], the concentration at 1 h turned out to be 39.1 ng/mL in the series “in vivo” (rat plasma, 1 h after oral JHT 2 g/kg, read-out: plasma concentration after β-glucuronidase treatment) and 2.4 ng/mL in the series “in vivo” (setting [3]).

In the case of `O=C(O)[C@H]1O[C@@H](Oc2c(-c3ccc(O)c(O)c3)oc3cc(O)cc(O)c3c2=O)[C@H](O)[C@@H](O)[C@@H]1O` [QCN-3G, quercetin 3-O-glucuronide], in “in vivo” (setting [4]), the “appearance / detection in plasma” value is given as “did not appear in the plasma”.

Consider `O=c1c(-c2ccc(O)cc2)coc2cc(O)cc(O)c12` [genistein], for which the concentration at 24 h is 78.3 ng/mL in the series “in vivo” (rat plasma, read-out: plasma concentration after β-glucuronidase treatment) and 0.975 ng/mL in “in vivo” (rat plasma, read-out: plasma concentration before β-glucuronidase treatment).

For the compound `O=C1C[C@@H](c2ccc(O)cc2)Oc2cc(O)ccc21` [liquiritigenin], the “activity against ROS (in words)” value in series [2] was “strong activity”. In addition, in the series “in vivo” (setting [5]), the “plasma concentration after β-glucuronidase treatment” value amounted to 200 ng/mL and the “plasma concentration before β-glucuronidase treatment” value amounted to 0.873 ng/mL.
